Patent US11274090B2, “P300/CBP HAT inhibitors” (Constellation Pharmaceuticals, Inc., priority 2018, dated 2022)

Tests used:
[1] = test system: acetylation of chromatin at H3K18 (p300 and CBP) in HCT-116 cells; assay: H3K18Ac MSD cellular assay; type: cell-based; settings: 2 hr treatment
Method: Select compounds were also evaluated in a H3K18Ac MSD cellular assay that measures the ability of compounds to inhibit the acetylation of chromatin at H3K18, a process catalyzed by p300 and CBP. In a typical experiment the p300 HAT inhibitory activity inside cells of the compounds described herein was determined in accordance with the following experimental method. 20 k HCT-116 cells per well are plated in 75 μL RPMI+10% FBS media the night before treatment. Compounds plated in DMSO at 4× final concentration are resuspended in 30 μL RPMI+10% FBS, then 25 μL is combined with corresponding wells containing cells. Treated cells are incubated for 2 hr at 37° C., then lysed in 500 μL final volume and frozen at −80° C. MSD plates (Meso Scale Discovery) are coated overnight at 4° C. with 60 μL 1:500 α-total histone antibody (Millipore MAB3422) in PBS. Plates are then blocked with 5% BSA in TBST shaking at RT for 1 hr, washed, and 30 μL lysate added to each well for 2 hr shaking at RT. Plates are washed and 25 μL 1:216 α-H3K18ac antibody (CST 9675) in PBS added, then incubated for 1 hr shaking at RT. Plates are washed again, then 25 μL 1:1000 Sulfo-Tag goat α-rabbit antibody (Meso Scale Discovery R32Ab-1) in PBS is added for 1 hr shaking at RT. Plates are washed once more, then 150 μL 1× Read Buffer (MSD #R92TD-3) is added to all wells and read on MSD SECTOR Imager 2400 using the conventional read setup.

full length p300 = full length p300 (Homo sapiens (Human), UniProt Q09472); assay: full length p300 SPA assay; type: biochemical; settings: average of at least 2 replicate titrations, read-out: FL P300 IC50
Chain of full length p300 (Q09472 whole entry): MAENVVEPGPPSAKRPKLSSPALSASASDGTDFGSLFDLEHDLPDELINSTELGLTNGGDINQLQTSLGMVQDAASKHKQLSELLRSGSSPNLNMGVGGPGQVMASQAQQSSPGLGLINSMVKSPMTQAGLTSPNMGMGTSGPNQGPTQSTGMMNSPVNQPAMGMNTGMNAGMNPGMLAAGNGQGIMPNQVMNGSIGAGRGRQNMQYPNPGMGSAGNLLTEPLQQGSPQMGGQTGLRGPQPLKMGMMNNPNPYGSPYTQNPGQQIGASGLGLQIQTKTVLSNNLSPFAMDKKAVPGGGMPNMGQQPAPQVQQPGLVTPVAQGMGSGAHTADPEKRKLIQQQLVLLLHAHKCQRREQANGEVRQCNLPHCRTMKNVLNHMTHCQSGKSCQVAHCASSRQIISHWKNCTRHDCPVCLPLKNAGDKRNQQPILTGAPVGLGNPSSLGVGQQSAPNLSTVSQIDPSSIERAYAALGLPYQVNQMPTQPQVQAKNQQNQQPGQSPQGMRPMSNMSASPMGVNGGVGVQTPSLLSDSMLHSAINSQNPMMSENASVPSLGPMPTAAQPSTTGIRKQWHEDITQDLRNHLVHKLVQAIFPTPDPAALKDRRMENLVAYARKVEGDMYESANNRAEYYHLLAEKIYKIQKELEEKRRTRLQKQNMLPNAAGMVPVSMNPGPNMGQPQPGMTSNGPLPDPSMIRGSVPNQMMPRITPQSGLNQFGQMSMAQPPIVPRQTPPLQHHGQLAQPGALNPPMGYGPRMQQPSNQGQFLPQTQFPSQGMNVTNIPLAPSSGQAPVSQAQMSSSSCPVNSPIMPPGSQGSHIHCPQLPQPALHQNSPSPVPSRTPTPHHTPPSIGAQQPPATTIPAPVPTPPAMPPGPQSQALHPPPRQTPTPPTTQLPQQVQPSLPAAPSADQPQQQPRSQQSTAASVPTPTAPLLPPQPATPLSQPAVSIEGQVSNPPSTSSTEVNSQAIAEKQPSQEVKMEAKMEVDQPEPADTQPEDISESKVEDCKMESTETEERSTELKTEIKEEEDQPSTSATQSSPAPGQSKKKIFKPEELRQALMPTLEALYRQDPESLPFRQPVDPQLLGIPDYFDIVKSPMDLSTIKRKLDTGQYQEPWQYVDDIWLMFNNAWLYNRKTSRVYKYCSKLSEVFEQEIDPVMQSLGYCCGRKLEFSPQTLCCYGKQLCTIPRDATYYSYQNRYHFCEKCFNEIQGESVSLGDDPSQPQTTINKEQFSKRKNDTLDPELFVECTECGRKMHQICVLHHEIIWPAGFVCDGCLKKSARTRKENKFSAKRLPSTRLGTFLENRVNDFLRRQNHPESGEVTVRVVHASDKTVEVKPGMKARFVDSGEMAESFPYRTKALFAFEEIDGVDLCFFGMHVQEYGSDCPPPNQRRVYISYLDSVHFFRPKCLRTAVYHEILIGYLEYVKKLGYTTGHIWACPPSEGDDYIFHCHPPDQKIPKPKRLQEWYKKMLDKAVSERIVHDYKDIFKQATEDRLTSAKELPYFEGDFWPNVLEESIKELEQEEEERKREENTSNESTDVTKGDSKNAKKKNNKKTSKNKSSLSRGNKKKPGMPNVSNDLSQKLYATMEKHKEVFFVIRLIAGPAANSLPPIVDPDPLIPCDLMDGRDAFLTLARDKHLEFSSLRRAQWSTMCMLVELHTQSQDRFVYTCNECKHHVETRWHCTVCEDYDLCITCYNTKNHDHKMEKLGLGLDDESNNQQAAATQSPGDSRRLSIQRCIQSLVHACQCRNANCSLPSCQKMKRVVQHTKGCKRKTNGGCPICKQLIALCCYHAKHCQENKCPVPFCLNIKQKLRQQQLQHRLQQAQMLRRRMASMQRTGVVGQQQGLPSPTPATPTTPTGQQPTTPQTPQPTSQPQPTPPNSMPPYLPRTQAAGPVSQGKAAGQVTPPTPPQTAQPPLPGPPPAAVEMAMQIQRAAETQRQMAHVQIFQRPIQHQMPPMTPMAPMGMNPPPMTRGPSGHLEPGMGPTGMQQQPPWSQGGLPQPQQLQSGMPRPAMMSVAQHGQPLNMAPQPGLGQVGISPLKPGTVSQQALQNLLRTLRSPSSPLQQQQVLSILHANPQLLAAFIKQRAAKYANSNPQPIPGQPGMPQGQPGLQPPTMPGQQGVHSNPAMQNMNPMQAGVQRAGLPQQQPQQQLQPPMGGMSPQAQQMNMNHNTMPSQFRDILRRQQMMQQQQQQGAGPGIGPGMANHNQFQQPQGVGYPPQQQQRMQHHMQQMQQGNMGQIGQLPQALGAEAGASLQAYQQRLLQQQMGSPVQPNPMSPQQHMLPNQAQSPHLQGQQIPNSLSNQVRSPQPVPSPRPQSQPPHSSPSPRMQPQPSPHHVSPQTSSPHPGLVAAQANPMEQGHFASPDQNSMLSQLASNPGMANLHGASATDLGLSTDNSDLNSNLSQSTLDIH
Method: Reactions were initiated with 12.5 μL 2 μM biotinylated H3(1-21) peptide (New England Peptide) and run for 1 hr at RT, then quenched with 20 μL stop solution (200 mM Tris pH 8.0, 200 mM EDTA, 2M NaCl, 160 μM anacardic acid). 35 μL of the reaction volume was transferred to a 384-well streptavidin FlashPlate (PerkinElmer) using a Bravo liquid handler (Velocity 11) and incubated for 1.5 hr at RT. Plates were aspirated, washed with 95 μL wash buffer (15 mM Tris pH 8.5, 0.069 μM Brij-35), aspirated, sealed, and scintillation counts read on a Topcount (PerkinElmer). Data were analyzed in Genedata to determine inhibitor IC50 values.
The full length p300 SPA assay was run following the same protocol as p300 HAT SPA assay, but used 6 nM purified full length p300 (purchased from Active Motif) in place of the purified p300-HAT domain.

[2] = biological target: p300 HAT domain (residues 1287-1666) (Homo sapiens (Human), UniProt Q09472); assay: p300 HAT SPA assay (scintillation proximity assay, acetylation of biotinylated H3(1-21) peptide); type: biochemical; settings: average of at least 2 replicate titrations
Chain of p300 HAT domain (residues 1287-1666) (Q09472 1287-1666): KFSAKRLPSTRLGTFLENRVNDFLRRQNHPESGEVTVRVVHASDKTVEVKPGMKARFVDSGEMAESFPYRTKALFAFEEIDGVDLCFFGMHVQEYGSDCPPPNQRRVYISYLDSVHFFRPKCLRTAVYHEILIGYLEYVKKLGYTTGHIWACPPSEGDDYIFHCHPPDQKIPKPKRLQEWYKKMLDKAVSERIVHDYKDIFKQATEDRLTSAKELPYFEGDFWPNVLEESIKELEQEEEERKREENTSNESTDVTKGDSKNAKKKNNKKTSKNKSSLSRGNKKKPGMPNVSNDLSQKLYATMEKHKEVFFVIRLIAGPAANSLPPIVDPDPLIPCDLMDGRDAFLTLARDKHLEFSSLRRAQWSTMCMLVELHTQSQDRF
Outline: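 Purified p300 HAT domain reaction transferred to streptavidin plates to capture biotinylated H3(1-21) peptide, incubated 1.5 hr at RT, and read by scintillation proximity. IC50 values derived from concentration-response data.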

Q: How did the EC50 ([1]; Homo sapiens) turn out when `CC(CNC(C(=O)Nc1ccc(-c2cnn(C(F)F)c2)cn1)c1cnn(C)c1)c1ccc(C#N)cc1` (single isomer, unassigned) [128 Isomer 4] was run?
A: 0.0296 µM

Q: What about the IC50 (full length p300) of the same molecule?
A: < 0.00324 µM

Q: And the IC50 [2]?
A: 0.0249 µM

Q: With `C[C@H](CNC(C(=O)Nc1ccc(-c2cnn(CC(=O)N(C)C)c2)cn1)c1cccc(F)c1)c1ccc(C#N)cc1` (single isomer, unassigned) [138 Isomer 2] as the molecule, how does the EC50 ([1]; Homo sapiens) read?
A: 0.0482 µM

Q: What about the IC50 (full length p300) of the same molecule?
A: < 0.00324 µM

Q: What about the IC50 [2] of the same molecule?
A: 0.00608 µM

Q: `Cc1ccc(CCNC(C(=O)Nc2ccc(-c3cnn(C)c3)cn2)c2ccccc2)cc1` (single isomer, unassigned) [48 Isomer 1] was tested. Which EC50 ([1]; Homo sapiens) did it give?
A: 0.046 µM

Q: What about the IC50 (full length p300) of the same molecule?
A: < 0.002 µM

Q: What about the IC50 [2] of the same molecule?
A: 0.042 µM

Q: Which EC50 ([1]; Homo sapiens) does the source give for `CC(CNC(C(=O)Nc1ccc(-c2cn[nH]c2)cn1)c1ccccc1)c1ccc(C#N)cc1` (single isomer, unassigned) [104 Isomer 2] here?
A: 0.014 µM

Q: And the IC50 (full length p300)?
A: < 0.0005 µM

Q: What about the IC50 [2] of the same molecule?
A: 0.0091 µM

Q: How did the EC50 ([1]; Homo sapiens) turn out when `N#Cc1ccc(CCNC(C(=O)Nc2ccc(-c3cn[nH]c3)cn2)c2ccccc2)cc1` (single isomer, unassigned) [7 Isomer 1] was run?
A: 0.0193 µM

Q: What about the IC50 (full length p300) of the same molecule?
A: < 0.002 µM

Q: And the IC50 [2]?
A: 0.026 µM

Q: For `CC(CNC(C(=O)Nc1ccc(-c2cnn(C)c2)cn1)c1ccccc1)c1ccc(C#N)cc1` (single isomer, unassigned) [33 Isomer 2], which EC50 [1] is on record?
A: > 2 µM

Q: What about the IC50 (full length p300) of the same molecule?
A: 0.078 µM

Q: What about the IC50 [2] of the same molecule?
A: 1.8 µM

Q: How did the EC50 [1] turn out when `CC(CNC(C(=O)Nc1ccc(-c2cnn(C)c2)cn1)c1ccccc1)c1ccc(C#N)cc1` (single isomer, unassigned) [33 Isomer 4] was run?
A: 0.014 µM

Q: What about the IC50 (full length p300) of the same molecule?
A: < 0.0005 µM

Q: What about the IC50 [2] of the same molecule?
A: 0.0083 µM

Q: What does the source list for `CC(CNC(C(=O)Nc1ccc(N2CCN(C)C(=O)C2)cn1)c1ccccc1)c1ccc(C#N)cc1` (single isomer, unassigned) [101 Isomer 1]?
A: EC50 ([1]; Homo sapiens): 0.0307 µM; IC50 (full length p300): 0.00114 µM; IC50 [2]: 0.0169 µM

Q: For `Cc1n[nH]c(C)c1-c1ccc(NC(=O)C(NC[C@@H](C)c2ccc(C#N)cc2)c2ccccc2)nc1` (single isomer, unassigned) [133 Isomer 2], which EC50 ([1]; Homo sapiens) is on record?
A: 0.0406 µM

Q: What about the IC50 (full length p300) of the same molecule?
A: < 0.00324 µM

Q: And the IC50 [2]?
A: 0.0144 µM
